# According to ChEMBL document CHEMBL1909046, “DrugMatrix in vitro pharmacology data”:
# Legend:
# Cytochrome P450 3A4 = Cytochrome P450 3A4 (Homo sapiens, UniProt P08684); conditions: bti-tn-5b1-4; note: in other assays of this panel Not Active means under 50% inhibition at 10 µM
# [1] = target: T1, Receptor-type tyrosine-protein phosphatase C (Homo sapiens, UniProt P08575); set-up: species or system Escherichia coli;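 note: inhibition of CD45 enzyme activity measured using DiFMUP as substrate; in other assays of this panel Not Active means under 50% inhibition at 10 µM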
# T1 sequence (P08575 whole entry): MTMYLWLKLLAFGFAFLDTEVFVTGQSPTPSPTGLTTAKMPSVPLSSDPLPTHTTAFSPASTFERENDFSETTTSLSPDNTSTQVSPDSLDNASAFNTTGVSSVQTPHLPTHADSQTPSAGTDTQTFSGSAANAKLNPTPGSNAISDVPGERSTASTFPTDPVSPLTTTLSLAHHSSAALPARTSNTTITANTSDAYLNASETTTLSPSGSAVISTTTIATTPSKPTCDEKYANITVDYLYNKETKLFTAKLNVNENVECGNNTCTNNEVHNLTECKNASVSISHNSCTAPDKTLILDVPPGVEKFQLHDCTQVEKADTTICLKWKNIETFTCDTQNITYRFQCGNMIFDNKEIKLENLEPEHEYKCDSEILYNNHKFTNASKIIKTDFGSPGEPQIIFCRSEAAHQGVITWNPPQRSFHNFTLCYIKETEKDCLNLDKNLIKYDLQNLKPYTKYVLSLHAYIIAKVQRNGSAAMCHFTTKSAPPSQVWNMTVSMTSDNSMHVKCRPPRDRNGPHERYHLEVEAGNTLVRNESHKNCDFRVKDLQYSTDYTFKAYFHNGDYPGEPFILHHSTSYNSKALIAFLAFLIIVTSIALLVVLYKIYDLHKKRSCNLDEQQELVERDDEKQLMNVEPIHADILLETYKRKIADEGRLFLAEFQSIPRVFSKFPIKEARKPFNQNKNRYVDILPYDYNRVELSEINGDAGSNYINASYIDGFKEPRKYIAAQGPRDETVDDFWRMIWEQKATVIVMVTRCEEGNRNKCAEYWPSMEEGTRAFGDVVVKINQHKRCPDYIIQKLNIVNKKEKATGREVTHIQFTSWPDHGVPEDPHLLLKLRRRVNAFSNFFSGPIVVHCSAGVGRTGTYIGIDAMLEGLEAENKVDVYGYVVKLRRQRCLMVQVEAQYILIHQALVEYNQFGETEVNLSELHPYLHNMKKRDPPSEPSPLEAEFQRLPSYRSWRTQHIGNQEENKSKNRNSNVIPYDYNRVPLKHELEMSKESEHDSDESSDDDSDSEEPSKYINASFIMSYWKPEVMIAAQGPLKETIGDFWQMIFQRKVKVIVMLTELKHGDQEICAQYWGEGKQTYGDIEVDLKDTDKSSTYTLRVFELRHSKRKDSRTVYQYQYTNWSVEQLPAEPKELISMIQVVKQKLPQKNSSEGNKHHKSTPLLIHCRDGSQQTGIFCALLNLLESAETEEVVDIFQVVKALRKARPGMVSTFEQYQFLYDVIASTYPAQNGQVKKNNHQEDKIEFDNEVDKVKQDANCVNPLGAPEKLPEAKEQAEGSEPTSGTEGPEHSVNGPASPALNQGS
# [2] = target: Beta-3 adrenergic receptor (Homo sapiens, UniProt P13945); assay: DRUGMATRIX: Adrenergic beta3 radioligand binding (ligand: [125I] Cyanopindolol); assay type: cell membranes, HEK293, Membrane; conditions: hek293; Not Active = under 50% inhibition at 10 µM
# Sequence of Beta-3 adrenergic receptor (P13945 whole entry): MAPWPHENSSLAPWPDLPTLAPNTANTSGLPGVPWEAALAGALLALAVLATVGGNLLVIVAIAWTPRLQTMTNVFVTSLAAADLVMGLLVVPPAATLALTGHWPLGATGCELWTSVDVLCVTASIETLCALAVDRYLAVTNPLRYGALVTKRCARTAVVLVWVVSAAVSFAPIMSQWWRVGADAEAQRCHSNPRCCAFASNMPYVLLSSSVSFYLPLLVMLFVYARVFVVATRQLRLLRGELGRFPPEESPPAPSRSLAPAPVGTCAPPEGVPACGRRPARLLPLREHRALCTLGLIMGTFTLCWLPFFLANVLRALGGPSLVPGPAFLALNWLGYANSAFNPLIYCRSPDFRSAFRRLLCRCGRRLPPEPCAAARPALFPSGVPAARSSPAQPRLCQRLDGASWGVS
# [3] = target: Vascular endothelial growth factor receptor 1 (Homo sapiens, UniProt P17948); assay: biochemical; assay type: cell-based, HUVEC; conditions: huvec; note: in other assays of this panel Not Active means under 50% inhibition at 10 µM
# Sequence of Vascular endothelial growth factor receptor 1 (P17948 whole entry): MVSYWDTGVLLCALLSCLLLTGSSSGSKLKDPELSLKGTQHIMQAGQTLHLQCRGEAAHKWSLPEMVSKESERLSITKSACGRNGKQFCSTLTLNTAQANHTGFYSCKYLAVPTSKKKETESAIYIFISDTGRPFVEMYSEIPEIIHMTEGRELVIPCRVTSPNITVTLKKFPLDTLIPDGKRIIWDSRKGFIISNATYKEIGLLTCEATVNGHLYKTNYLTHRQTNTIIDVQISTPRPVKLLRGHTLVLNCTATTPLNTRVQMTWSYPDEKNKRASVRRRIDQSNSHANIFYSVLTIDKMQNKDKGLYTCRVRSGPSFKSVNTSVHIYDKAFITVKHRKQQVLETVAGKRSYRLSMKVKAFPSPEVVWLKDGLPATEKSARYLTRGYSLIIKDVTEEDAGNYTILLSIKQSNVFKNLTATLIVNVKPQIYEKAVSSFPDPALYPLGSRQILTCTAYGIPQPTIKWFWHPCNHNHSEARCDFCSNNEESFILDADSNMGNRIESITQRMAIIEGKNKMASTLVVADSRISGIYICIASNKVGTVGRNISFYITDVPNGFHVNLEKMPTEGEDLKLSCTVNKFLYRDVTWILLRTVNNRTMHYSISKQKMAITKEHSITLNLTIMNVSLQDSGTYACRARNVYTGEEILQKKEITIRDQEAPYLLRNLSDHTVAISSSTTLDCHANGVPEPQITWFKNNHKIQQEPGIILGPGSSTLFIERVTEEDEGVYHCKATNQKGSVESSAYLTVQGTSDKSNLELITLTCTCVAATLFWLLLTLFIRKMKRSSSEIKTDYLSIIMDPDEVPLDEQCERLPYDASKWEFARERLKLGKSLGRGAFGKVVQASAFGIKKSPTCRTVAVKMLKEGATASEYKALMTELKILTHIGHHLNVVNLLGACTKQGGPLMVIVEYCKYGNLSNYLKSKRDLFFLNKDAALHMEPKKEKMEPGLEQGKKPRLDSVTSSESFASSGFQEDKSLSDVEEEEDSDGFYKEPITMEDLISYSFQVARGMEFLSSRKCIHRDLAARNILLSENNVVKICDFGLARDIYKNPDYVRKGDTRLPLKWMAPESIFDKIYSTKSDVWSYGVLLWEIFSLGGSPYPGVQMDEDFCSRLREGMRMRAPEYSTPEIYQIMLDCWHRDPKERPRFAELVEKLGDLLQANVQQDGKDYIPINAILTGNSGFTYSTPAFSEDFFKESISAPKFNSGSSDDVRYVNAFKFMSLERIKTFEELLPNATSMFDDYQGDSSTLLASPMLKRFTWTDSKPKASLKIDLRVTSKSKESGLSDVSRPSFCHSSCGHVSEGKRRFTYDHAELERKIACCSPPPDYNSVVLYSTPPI
# [4] = target: Sodium-dependent noradrenaline transporter (Homo sapiens, UniProt P23975); assay: DRUGMATRIX: Norepinephrine Transporter radioligand binding (ligand: [125I] RTI-55); assay type: cell membranes, MDCK, Membrane; conditions: Not Active = under 50% inhibition at 10 µM; for Ki: read-out: Ki
# Sequence of Sodium-dependent noradrenaline transporter (P23975 whole entry): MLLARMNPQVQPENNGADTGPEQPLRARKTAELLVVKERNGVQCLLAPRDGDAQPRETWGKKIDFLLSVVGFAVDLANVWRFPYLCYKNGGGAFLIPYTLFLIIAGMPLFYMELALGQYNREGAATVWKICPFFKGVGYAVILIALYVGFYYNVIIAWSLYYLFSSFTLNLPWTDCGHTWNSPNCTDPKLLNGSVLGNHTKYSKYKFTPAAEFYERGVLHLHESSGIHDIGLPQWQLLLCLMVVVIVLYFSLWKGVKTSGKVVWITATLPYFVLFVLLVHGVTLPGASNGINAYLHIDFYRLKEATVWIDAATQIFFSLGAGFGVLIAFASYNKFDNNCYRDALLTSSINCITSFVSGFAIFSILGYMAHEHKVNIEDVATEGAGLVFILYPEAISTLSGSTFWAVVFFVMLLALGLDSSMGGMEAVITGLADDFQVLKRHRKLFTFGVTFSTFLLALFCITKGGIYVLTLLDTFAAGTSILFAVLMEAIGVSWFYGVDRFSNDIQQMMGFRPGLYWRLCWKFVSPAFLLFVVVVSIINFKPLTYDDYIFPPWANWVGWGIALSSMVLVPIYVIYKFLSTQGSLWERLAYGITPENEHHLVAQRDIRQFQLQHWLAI
# Substance-K receptor = target: T2, Substance-K receptor (Homo sapiens, UniProt P21452); assay type: cell membranes, CHO, Membrane; conditions: cho; note: in other assays of this panel Not Active means under 50% inhibition at 10 µM
# T2 sequence (P21452 whole entry): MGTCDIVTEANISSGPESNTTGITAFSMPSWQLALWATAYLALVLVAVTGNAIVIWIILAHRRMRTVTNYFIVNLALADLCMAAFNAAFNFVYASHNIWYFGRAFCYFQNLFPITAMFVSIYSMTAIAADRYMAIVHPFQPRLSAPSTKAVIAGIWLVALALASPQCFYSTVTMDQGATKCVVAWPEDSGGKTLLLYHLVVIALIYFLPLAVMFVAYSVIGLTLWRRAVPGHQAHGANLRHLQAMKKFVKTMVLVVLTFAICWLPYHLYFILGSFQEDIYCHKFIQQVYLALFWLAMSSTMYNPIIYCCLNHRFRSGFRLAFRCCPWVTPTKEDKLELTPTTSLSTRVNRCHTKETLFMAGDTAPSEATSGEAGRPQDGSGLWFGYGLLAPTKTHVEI
# Sequence of Cytochrome P450 3A4 (P08684 whole entry): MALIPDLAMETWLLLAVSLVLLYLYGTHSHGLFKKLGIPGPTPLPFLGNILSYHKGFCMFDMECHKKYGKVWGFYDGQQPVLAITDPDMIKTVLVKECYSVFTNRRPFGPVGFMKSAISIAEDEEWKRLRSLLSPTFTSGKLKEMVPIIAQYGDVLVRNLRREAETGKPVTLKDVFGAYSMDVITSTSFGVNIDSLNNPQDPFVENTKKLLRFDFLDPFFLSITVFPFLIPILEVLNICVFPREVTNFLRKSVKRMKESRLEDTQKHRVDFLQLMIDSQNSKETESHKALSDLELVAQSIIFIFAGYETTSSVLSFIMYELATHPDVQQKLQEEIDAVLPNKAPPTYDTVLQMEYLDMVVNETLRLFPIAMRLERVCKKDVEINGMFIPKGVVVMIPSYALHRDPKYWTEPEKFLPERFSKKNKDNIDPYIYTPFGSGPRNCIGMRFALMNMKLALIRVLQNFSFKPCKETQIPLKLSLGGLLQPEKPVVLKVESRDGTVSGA
SMILES,IC50 (Cytochrome P450 3A4),Ki (Cytochrome P450 3A4),IC50 [1],IC50 [2],IC50 [3],IC50 ([4]; mdck),IC50 (Substance-K receptor),IC50 ([4]; read-out: IC50),Ki [4]
CC(C)(C)c1ccc(S(=O)(=O)/C=C/C#N)cc1 [BAY-11-7085],Not Active,Not Active,Not Active,Not Active,Not Active,Not Active,Not Active,–,–
CCc1oc2ccccc2c1C(=O)c1cc(Br)c(O)c(Br)c1 [BENZBROMARONE],Not Active,Not Active,Not Active,Not Active,Not Active,Not Active,Not Active,–,–
O=c1cc(-c2ccccc2)oc2ccc3ccccc3c12 [BETA-NAPHTHOFLAVONE],Not Active,Not Active,Not Active,Not Active,Not Active,Not Active,Not Active,–,–
CS(=O)(=O)OCCCCOS(C)(=O)=O [BUSULFAN],Not Active,Not Active,Not Active,Not Active,Not Active,Not Active,Not Active,–,–
O=C(/C=C/c1ccc(O)c(O)c1)OCCc1ccccc1 [CAFFEIC ACID PHENETHYL ESTER],Not Active,Not Active,Not Active,Not Active,Not Active,–,Not Active,3.79 µM,3.76 µM
COc1cc(CNC(=O)CCCC/C=C/C(C)C)ccc1O [CAPSAICIN],Not Active,Not Active,Not Active,Not Active,Not Active,Not Active,Not Active,–,–
NC(=O)N1c2ccccc2C=Cc2ccccc21 [CARBAMAZEPINE],Not Active,Not Active,Not Active,Not Active,Not Active,Not Active,Not Active,–,–
CCOC(=O)n1ccn(C)c1=S [CARBIMAZOLE],Not Active,Not Active,Not Active,Not Active,Not Active,Not Active,Not Active,–,–
Oc1ccccc1O [CATECHOL],Not Active,Not Active,Not Active,Not Active,Not Active,Not Active,Not Active,–,–
CO[C@@]1(NC(=O)CSCC#N)C(=O)N2C(C(=O)O)=C(CSc3nnnn3C)CS[C@@H]21 [CEFMETAZOLE],Not Active,Not Active,Not Active,Not Active,Not Active,Not Active,Not Active,–,–
CN(C(=O)CCCOc1ccc2[nH]c(=O)ccc2c1)C1CCCCC1 [CILOSTAMIDE],Not Active,Not Active,Not Active,Not Active,Not Active,Not Active,Not Active,–,–
CC(C)(Oc1ccc(C2CC2(Cl)Cl)cc1)C(=O)O (centres undefined) [CIPROFIBRATE],Not Active,Not Active,Not Active,Not Active,Not Active,Not Active,Not Active,–,–
Nc1nc(Cl)nc2c1ncn2[C@H]1C[C@H](O)[C@@H](CO)O1 [CLADRIBINE],Not Active,Not Active,Not Active,Not Active,Not Active,Not Active,Not Active,–,–
CC[C@H]1OC(=O)[C@H](C)[C@@H](O[C@H]2C[C@@](C)(OC)[C@@H](O)[C@H](C)O2)[C@H](C)[C@@H](O[C@@H]2O[C@H](C)C[C@H](N(C)C)[C@H]2O)[C@](C)(OC)C[C@@H](C)C(=O)[C@H](C)[C@@H](O)[C@]1(C)O [CLARITHROMYCIN],Not Active,Not Active,Not Active,Not Active,Not Active,Not Active,Not Active,–,–
O=C(O)c1cc(=O)c2c(OCC(O)COc3cccc4oc(C(=O)O)cc(=O)c34)cccc2o1 [CROMOLYN],Not Active,Not Active,Not Active,Not Active,Not Active,Not Active,Not Active,–,–
O=P1(N(CCCl)CCCl)NCCCO1 (centres undefined) [CYCLOPHOSPHAMIDE ANHYDROUS],Not Active,Not Active,Not Active,Not Active,Not Active,Not Active,Not Active,–,–
CC(=O)O[C@]1(C(C)=O)CC[C@H]2[C@@H]3C=C(Cl)C4=CC(=O)[C@@H]5C[C@@H]5[C@]4(C)[C@H]3CC[C@@]21C [CYPROTERONE ACETATE],Not Active,Not Active,Not Active,Not Active,Not Active,Not Active,Not Active,–,–
Nc1nc(N)nc(NC2CC2)n1 [CYROMAZINE],Not Active,Not Active,Not Active,Not Active,Not Active,Not Active,Not Active,–,–
CCN[C@@H](C)Cc1cccc(C(F)(F)F)c1 [DEXFENFLURAMINE],Not Active,Not Active,Not Active,Not Active,Not Active,Not Active,Not Active,–,–
C[C@H](C(=O)O)c1cccc(C(=O)c2ccccc2)c1 [DEXKETOPROFEN],Not Active,Not Active,Not Active,Not Active,Not Active,Not Active,Not Active,–,–
Cc1c(N(C)CS(=O)(=O)[O-])c(=O)n(-c2ccccc2)n1C.[Na+] [DIPYRONE SODIUM],Not Active,Not Active,Not Active,Not Active,Not Active,Not Active,Not Active,–,–
CC(CCc1ccc(O)cc1)NCCc1ccc(O)c(O)c1 (centres undefined) [DOBUTAMINE],Not Active,Not Active,Not Active,Not Active,Not Active,–,Not Active,0.383 µM,0.38 µM
CCn1cc(C(=O)O)c(=O)c2cc(F)c(N3CCNCC3)nc21 [ENOXACIN],Not Active,Not Active,Not Active,Not Active,Not Active,Not Active,Not Active,–,–
CCC(=O)O[C@H]1[C@H](O[C@@H]2[C@@H](C)[C@H](O[C@H]3C[C@@](C)(OC)[C@@H](O)[C@H](C)O3)[C@@H](C)C(=O)O[C@H](CC)[C@@](C)(O)[C@H](O)[C@@H](C)C(=O)[C@H](C)C[C@@]2(C)O)O[C@H](C)C[C@@H]1N(C)C [ERYTHROMYCIN PROPIONATE],Not Active,Not Active,Not Active,Not Active,Not Active,Not Active,Not Active,–,–
C=C(CC)C(=O)c1ccc(OCC(=O)O)c(Cl)c1Cl [ETHACRYNIC ACID],Not Active,Not Active,Not Active,Not Active,Not Active,Not Active,Not Active,–,–
OCCO [ETHYLENE GLYCOL],Not Active,Not Active,Not Active,Not Active,Not Active,Not Active,Not Active,–,–
